From article PMC8691750, “Euphorbia Factor L2 ameliorates the Progression of K/BxN Serum-Induced Arthritis by Blocking TLR7 Mediated IRAK4/IKKβ/IRF5 and NF-kB Signaling Pathways” (Frontiers in Pharmacology, 2021)
Values joined by “and” are separate entries in the source; they are usually repeats but may differ in a detail not shown here. Equal values may be shown once.

Test system: TLR signalling pathway genes
Test: Toll-like Receptor Pathway PCR array of ankles
Format: in vivo, C57BL/6 mice
Conditions: for S40/SIA (fold change) / log2(fold change) S40/SIA: S40 group vs SIA group
Protocol: Total RNA was isolated from the right ankles using the TRIzol Reagent (Invitrogen) and purified with RNeasy Mini Kit and RNase-Free DNase Set (Qiagen). RNA quality was determined using a spectrophotometer and was reversely transcribed using Wcgene® mRNA cDNA kit. The complementary DNA was used on the Toll-like Receptor Pathway PCR Array plate (Wcgene® biotech, China).

[1] = ankles of STA mice, single-animal samples S401-S405
[2] = ankles of STA mice, single-animal samples S401-S405, relative to GAPDH
[3] = ankles, STA mice + EFL2 i.p., individual mice EFL2-1 to EFL2-4
[4] = ankles, EFL2 40 mg/kg i.p. treated STA mice versus STA mice

C=C1C(OC(=O)c2ccccc2)CC2C(C=C(C)C(=O)C3(OC(C)=O)CC(C)C(OC(=O)c4ccccc4)C3C1OC(C)=O)C2(C)C (centres unmarked) [EFL2, Euphorbia factor L2]
S40/SIA (fold change) (Tlr8 mRNA): 0.1573
log2(fold change) S40/SIA (Tlr8 mRNA): -2.668
S40/SIA (fold change) (Tlr9 mRNA): 0.05745
log2(fold change) S40/SIA (Tlr9 mRNA): -4.122
S40/SIA (fold change) (Tnf mRNA): 0.271
log2(fold change) S40/SIA (Tnf mRNA): -1.884
S40/SIA (fold change) (Tnfaip3 mRNA): 0.2367
log2(fold change) S40/SIA (Tnfaip3 mRNA): -2.079
S40/SIA (fold change) (Tollip mRNA): 0.6335
log2(fold change) S40/SIA (Tollip mRNA): -0.6586
S40/SIA (fold change) (Traf6 mRNA): 0.511
log2(fold change) S40/SIA (Traf6 mRNA): -0.9687
S40/SIA (fold change) (Ube2v1 mRNA): 0.4284
log2(fold change) S40/SIA (Ube2v1 mRNA): -1.223
Rel Cт [1]: 30.17 and 31.86 and 31.19
Rela Cт [1]: 27.60 and 28.97 and 29.92
Ripk2 Cт [1]: 31.20 and 31.97 and 31.38
Tbk1 Cт [1]: 35.01 and 33.84 and 30.91
Tbp Cт [1]: 32.79 and 35.04 and 35.08 and 35.26
Ticam1 Cт [1]: 30.63 and 31.57 and 31.92 and 31.40
Ticam2 Cт [1]: 31.98 and 32.33 and 32.54 and 32.28
Tirap Cт [1]: 31.54 and 33.23 and 32.87
Tlr1 Cт [1]: 31.47 and 31.48 and 31.36 and 33.05
Tlr2 Cт [1]: 29.79 and 30.45 and 30.70
Tlr3 Cт [1]: 31.62 and 33.01 and 32.92 and 28.89
Tlr4 Cт [1]: 29.41 and 30.97 and 30.43 and 30.84
Tlr5 Cт [1]: 33.11 and 33.16 and 33.55 and 34.74
Tlr6 Cт [1]: 32.61 and 34.42 and 28.05
Tlr7 Cт [1]: 33.17 and 34.60 and 34.75
Tlr8 Cт [1]: 31.72 and 32.87
Tlr9 Cт [1]: 33.32 and 37.49
Tnf Cт [1]: 33.75 and 35.02 and 34.91
Tnfaip3 Cт [1]: 31.00 and 33.42 and 32.49 and 32.20
Tnfrsf1a Cт [1]: 27.55 and 28.63 and 28.76
Tollip Cт [1]: 29.42 and 30.42 and 30.55
Tradd Cт [1]: 31.88 and 32.32 and 32.17 and 32.45
Traf6 Cт [1]: 30.31 and 30.69 and 31.10 and 30.54
Ube2n Cт [1]: 27.18 and 28.39 and 28.43 and 28.55
Ube2v1 Cт [1]: 26.90 and 29.51 and 28.01 and 27.92
Rel fold-GAPDH [2]: 0.005407 and 0.004928 and 0.005486
Ripk2 fold-GAPDH [2]: 0.002639 and 0.004565 and 0.002897
Tlr2 fold-GAPDH [2]: 0.007046 and 0.01307 and 0.007729
Tlr8 fold-GAPDH [2]: 0.001839 and 0.001034
Tnf fold-GAPDH [2]: 0.0004529 and 0.0005528 and 0.0004186
Tnfaip3 fold-GAPDH [2]: 0.003028 and 0.001676 and 0.002239 and 0.001643
Tollip fold-GAPDH [2]: 0.009094 and 0.01333 and 0.008592
Becn1 relative expression to GAPDH [3]: 0.001891 and 0.007192 and 0.004096
Btk relative expression to GAPDH [3]: 0.001831 and 0.004678 and 0.001063 and 0.002403
Casp8 relative expression to GAPDH [3]: 0.01358 and 0.009475 and 0.01634
Ccl2 relative expression to GAPDH [3]: 0.00629 and 0.0002036 and 0.01529
Ccl11 relative expression to GAPDH [3]: 0.008836 and 0.01327 and 0.005579 and 0.01036
Cd86 relative expression to GAPDH [3]: 0.0005777 and 0.0007714 and 0.0003428 and 0.0007215
Chuk relative expression to GAPDH [3]: 0.01087 and 0.008829 and 0.008767
Clec4e relative expression to GAPDH [3]: 0.002249 and 0.0004993 and 4.1493e-5 and 0.0002637
Cxcl10 relative expression to GAPDH [3]: 2.1064e-5
Elk1 relative expression to GAPDH [3]: 0.005652 and 0.006734 and 0.002589 and 0.006009
Fadd relative expression to GAPDH [3]: 0.0009207 and 0.00158 and 0.0009332 and 0.001977
Hras1 relative expression to GAPDH [3]: 0.02746 and 0.02268 and 0.01475 and 0.02419
Hspd1 relative expression to GAPDH [3]: 0.02518 and 0.003019 and 0.01313 and 0.02796
IRF5 relative expression to GAPDH [3]: 0.004692 and 0.004033 and 0.001353 and 0.004631
Il1b relative expression to GAPDH [3]: 0.0009616 and 0.0008 and 0.0006699 and 0.005996
Il6 relative expression to GAPDH [3]: 0.0008677 and 0.0003997 and 0.0006556 and 0.002971
Il10 relative expression to GAPDH [3]: 0.0002257 and 7.048e-5 and 9.932e-5 and 0.0001425
Ilr1 relative expression to GAPDH [3]: 0.01561 and 0.01023 and 0.00774 and 0.01383
Irak2 relative expression to GAPDH [3]: 0.004831 and 0.004355 and 0.002516 and 0.003024
Irak3 relative expression to GAPDH [3]: 0.02176 and 0.01462 and 0.00868 and 0.01639
Irf1 relative expression to GAPDH [3]: 0.008232 and 0.006938
Irf3 relative expression to GAPDH [3]: 0.01143 and 0.004857 and 0.01116
Jun relative expression to GAPDH [3]: 0.0443 and 0.03642 and 0.03036 and 0.04078
Ly96 relative expression to GAPDH [3]: 0.008818 and 0.008037 and 0.003545 and 0.00648
Map2k4 relative expression to GAPDH [3]: 0.009032 and 0.01171 and 0.005161 and 0.006054
Myd88 relative expression to GAPDH [3]: 0.0089 and 0.006533 and 0.004478 and 0.009066
Nfkb2 relative expression to GAPDH [3]: 0.008129 and 0.004372 and 0.004079 and 0.005983
Nfkbia relative expression to GAPDH [3]: 0.03111 and 0.02056 and 0.01675 and 0.03064
Nfkbib relative expression to GAPDH [3]: 0.005737 and 0.004539 and 0.002397 and 0.00388
Nr2c2 relative expression to GAPDH [3]: 0.009954 and 0.006912 and 0.004742 and 0.008167
Peli1 relative expression to GAPDH [3]: 0.02035 and 0.01296 and 0.0006428 and 0.01623
Pglyrp1 relative expression to GAPDH [3]: 0.0004159 and 0.002383 and 0.001422
Ptgs2 relative expression to GAPDH [3]: 0.000397 and 0.0002674 and 0.0003018 and 0.001434
Rel relative expression to GAPDH [3]: 0.004928 and 0.005486 and 0.005407
Ticam1 relative expression to GAPDH [3]: 0.006005 and 0.003329 and 0.002855 and 0.003921
Tlr2 relative expression to GAPDH [3]: 0.01307 and 0.007729 and 0.007046
Tlr3 relative expression to GAPDH [3]: 0.002217 and 0.00166 and 0.01628 and 0.001979
Tlr4 relative expression to GAPDH [3]: 0.00914 and 0.009306 and 0.004225 and 0.009146
Tlr5 relative expression to GAPDH [3]: 0.001998 and 0.001071 and 0.0002832 and 0.0007049
Tlr7 relative expression to GAPDH [3]: 0.0007393 and 0.00028 and 0.0006762
Tlr8 relative expression to GAPDH [3]: 0.001034 and 0.001839
Tlr9 relative expression to GAPDH [3]: 9.931e-5 and 0.0006069
Tnf relative expression to GAPDH [3]: 0.0005528 and 0.0004186 and 0.0004529
Tnfaip3 relative expression to GAPDH [3]: 0.001676 and 0.002239 and 0.001643 and 0.003028
Tollip relative expression to GAPDH [3]: 0.01333 and 0.008592 and 0.009094
Traf6 relative expression to GAPDH [3]: 0.01108 and 0.005865 and 0.005186 and 0.004909
Ube2v1 relative expression to GAPDH [3]: 0.02505 and 0.04987 and 0.0319 and 0.05212
Becn1 fold change S40/SIA [4]: 0.2727
Btk fold change S40/SIA [4]: 0.3155
Casp8 fold change S40/SIA [4]: 0.2393
Ccl2 fold change S40/SIA [4]: 0.0326
Ccl11 fold change S40/SIA [4]: 1.864
Cd86 fold change S40/SIA [4]: 0.1925
Chuk fold change S40/SIA [4]: 0.3313
Clec4e fold change S40/SIA [4]: 0.0859
Cxcl10 fold change S40/SIA [4]: 0.002337
Elk1 fold change S40/SIA [4]: 0.3565
Fadd fold change S40/SIA [4]: 0.1995
Hras1 fold change S40/SIA [4]: 0.4915
Hspd1 fold change S40/SIA [4]: 0.2339
IRF5 fold change S40/SIA [4]: 0.3677
Il1b fold change S40/SIA [4]: 0.0229
Il6 fold change S40/SIA [4]: 0.03478
Il10 fold change S40/SIA [4]: 0.2443
Ilr1 fold change S40/SIA [4]: 0.09556
Irak2 fold change S40/SIA [4]: 0.4814
Irak3 fold change S40/SIA [4]: 0.4891
Irf1 fold change S40/SIA [4]: 0.3319
Irf3 fold change S40/SIA [4]: 0.3241
Jun fold change S40/SIA [4]: 0.3678
Ly96 fold change S40/SIA [4]: 0.3878
Map2k4 fold change S40/SIA [4]: 0.8651
Myd88 fold change S40/SIA [4]: 0.1447
Nfkb2 fold change S40/SIA [4]: 0.2395
Nfkbia fold change S40/SIA [4]: 0.2445
Nfkbib fold change S40/SIA [4]: 0.4073
Nr2c2 fold change S40/SIA [4]: 0.5521
Peli1 fold change S40/SIA [4]: 0.462
Pglyrp1 fold change S40/SIA [4]: 0.2161
Ptgs2 fold change S40/SIA [4]: 0.03786
Rel fold change S40/SIA [4]: 0.2762
Ticam1 fold change S40/SIA [4]: 0.59
Tlr2 fold change S40/SIA [4]: 0.1682
Tlr3 fold change S40/SIA [4]: 0.7859
Tlr4 fold change S40/SIA [4]: 0.5705
Tlr5 fold change S40/SIA [4]: 0.188
Tlr7 fold change S40/SIA [4]: 0.09461
Tlr8 fold change S40/SIA [4]: 0.1573
Tlr9 fold change S40/SIA [4]: 0.05745
Tnf fold change S40/SIA [4]: 0.271
Tnfaip3 fold change S40/SIA [4]: 0.2367
Tollip fold change S40/SIA [4]: 0.6335
Traf6 fold change S40/SIA [4]: 0.511
Ube2v1 fold change S40/SIA [4]: 0.4284
